Assay [1] deals with T1, HCV polymerase (NS5B) type 1b (Hepatitis C virus genotype 1b, UniProt P26663).
T1 construct: a region encoding NS5B (J Virol 1991 March, 65(3), 1105-13, 544 amino acids after deletion of 47 amino acids on the C-terminal); 6xHis (C); made in house; host or cells: Escherichia coli
In words: Assay of enzyme (HCV polymerase) inhibitory activity, type 1b enzyme. The conditions noted are these: HCV polymerase inhibitory activity (IC50), 1b, type 1b enzyme 0.5 μg/ml, 25° C., 60 min. Format: biochemical, HCV BK strain (type 1b). In outline: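 His-tagged, C-terminally truncated NS5B (BK strain, 1b; 0.5 μg/ml) incubated with compound 60 min at 25 °C on 3′UTR-derived substrate RNA (5 μg/ml), 50 μM ATP/GTP/CTP, 2 μM UTP plus [3H]UTP, pH 7.5. Acid-precipitated RNA counted; IC50 from radioactivity with and without compound.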

Assay [2] deals with T2, HCV polymerase (NS5B) type 1a (Hepatitis C virus genotype 1a, UniProt P26664).
T2 construct: made in house; host or cells: Escherichia coli (by the 'similar method' of the 1b enzyme)
In words: Assay of enzyme (HCV polymerase) inhibitory activity, type 1a enzyme. Format: biochemical, HCV type 1a (cloned from the blood of patients). As to conditions: HCV polymerase inhibitory activity (IC50), 1a, type 1a enzyme 1.5 μg/ml, 25° C., 60 min. Put shortly:
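His-tagged NS5B, C-terminal 47 residues deleted, type 1a at 1.5 μg/ml, with 5 μg/ml HCV 3′UTR substrate RNA, 50 μM ATP/GTP/CTP, 2 μM UTP plus [3H]UTP, pH 7.5 Tris, 5 mM MgCl2; 60 min at 25° C. TCA-precipitated RNA counted by scintillation; IC50 from radioactivity with vs. without compound.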

This is an account of results in patent US8017612B2, “Piperazine compound and use thereof as a HCV polymerase inhibitor” (priority 2006, dated 2011).

Structures can show the parent of a compound that is named as a salt. Some results are limits rather than exact numbers.

In the case of `CCNC(=O)N1CCN(S(=O)(=O)c2ccc(C(F)(F)F)cc2)[C@@H](C(=O)NCc2ccc(C(C)C)cc2)C1` [Example 177, (R)-4-(4-trifluoromethyl-benzenesulfonyl)-piperazine-1,3-dicarboxylic acid 1-ethylamide 3-(4-isopropyl-benzylamide)], the IC50 in assay [1] and in assay [2] was 0.1 to 1 µM each time.
For the compound `CC(C)c1ccc(CNC(=O)[C@H]2CN(C(=O)Nc3ccccc3)CCN2S(=O)(=O)c2ccc(C(F)(F)F)cc2)cc1` [Example 178, (R)-4-(4-trifluoromethyl-benzenesulfonyl)-piperazine-1,3-dicarboxylic acid 3-(4-isopropyl-benzylamide) 1-phenylamide], the IC50 in assay [1] and in assay [2] was 0.1 to 1 µM throughout.
Regarding `CC(C)c1ccc(CNC(=O)[C@H]2CN(C3=NCCS3)CCN2S(=O)(=O)c2ccc(C(F)(F)F)cc2)cc1` [Example 179, (R)-4-(4,5-dihydro-thiazol-2-yl)-1-(4-trifluoromethyl-benzenesulfonyl)-piperazine-2-carboxylic acid 4-isopropyl-benzylamide], the IC50 in assay [1] and in assay [2] was 0.1 to 1 µM in each case.
For the compound `CC(C)c1ccc(CNC(=O)[C@H]2CN(C(=O)CN3CCOCC3)CCN2S(=O)(=O)c2ccc(C(F)(F)F)cc2)cc1` [Example 180, (R)-4-(2-morpholin-4-yl-acetyl)-1-(4-trifluoromethyl-benzenesulfonyl)-piperazine-2-carboxylic acid 4-isopropyl-benzylamide], the IC50 is 0.1 to 1 µM in assay [1] and more than 1 µM in assay [2].
The corresponding values for `CC(=O)N1CCN(S(=O)(=O)c2ccc(C(C)C)cc2)C(C(=O)NCc2ccc(N(C)CCO)cc2)C1` (stereo not drawn) [Example 181, 4-acetyl-1-(4-isopropyl-benzenesulfonyl)-piperazine-2-carboxylic acid 4-[(2-hydroxy-ethyl)-methyl-amino]-benzylamide] are more than 1 µM and more than 1 µM.
Turning to `CC(=O)N1CCN(S(=O)(=O)c2ccc(C(C)C)cc2)[C@@H](C(=O)NCc2ccc(Br)cc2Cl)C1` [Example 182, (R)-4-acetyl-1-(4-isopropyl-benzenesulfonyl)-piperazine-2-carboxylic acid 4-bromo-2-chloro-benzylamide], the IC50 in assay [1] and in assay [2] was 0.1 to 1 µM each time.
Regarding `CC(=O)N1CCN(S(=O)(=O)c2ccc(C(C)C)cc2)[C@@H](C(=O)NCc2ccc(C(C)C)cc2Cl)C1` [Example 183, (R)-4-acetyl-1-(4-isopropyl-benzenesulfonyl)-piperazine-2-carboxylic acid 2-chloro-4-isopropyl-benzylamide], the IC50 in assay [1] and in assay [2] was 0.1 to 1 µM throughout.
For the compound `Cc1csc(N2CCN(S(=O)(=O)c3ccc(C(F)(F)F)cc3)[C@@H](C(=O)NCc3ccc(C(C)C)cc3)C2)n1` [Example 184, (R)-4-(4-methyl-thiazol-2-yl)-1-(4-trifluoromethyl-benzenesulfonyl)-piperazine-2-carboxylic acid 4-isopropyl-benzylamide], the IC50 in assay [1] and in assay [2] was 0.1 to 1 µM throughout.
Take `CC(=O)NCC(=O)N1CCN(S(=O)(=O)c2ccc(C(F)(F)F)cc2)[C@@H](C(=O)NCc2ccc(C(C)C)cc2)C1` [Example 185, (R)-4-(2-acetylamino-acetyl)-1-(4-trifluoromethyl-benzenesulfonyl)-piperazine-2-carboxylic acid 4-isopropyl-benzylamide]: the IC50 was 0.1 to 1 µM in assay [1] and more than 1 µM in assay [2].
The matching figures for `CC(C)c1ccc(CNC(=O)[C@H]2CN(C(=O)CCNC(=O)OC(C)(C)C)CCN2S(=O)(=O)c2ccc(C(F)(F)F)cc2)cc1` [Example 186, {3-[(R)-3-(4-isopropyl-benzylcarbamoyl)-4-(4-trifluoromethyl-benzenesulfonyl)-piperazin-1-yl]-3-oxo-propyl}-carbamic acid tert-butyl ester]: 0.1 to 1 µM and more than 1 µM.
Regarding `CC(C)c1ccc(CNC(=O)[C@H]2CN(C(=O)CCC(=O)O)CCN2S(=O)(=O)c2ccc(C(F)(F)F)cc2)cc1` [Example 187, 4-[(R)-3-(4-isopropyl-benzylcarbamoyl)-4-(4-trifluoromethyl-benzenesulfonyl)-piperazin-1-yl]-4-oxo-butyric acid], the IC50 in assay [1] and in assay [2] was more than 1 µM in each case.
On to `CC(=O)NCCC(=O)N1CCN(S(=O)(=O)c2ccc(C(F)(F)F)cc2)[C@@H](C(=O)NCc2ccc(C(C)C)cc2)C1` [Example 188, (R)-4-(3-acetylamino-propionyl)-1-(4-trifluoromethyl-benzenesulfonyl)-piperazine-2-carboxylic acid 4-isopropyl-benzylamide], for which the IC50 in assay [1] and in assay [2] was 0.1 to 1 µM throughout.
Turning to `CC(C)c1ccc(CNC(=O)[C@H]2CN(C(=O)CCN)CCN2S(=O)(=O)c2ccc(C(F)(F)F)cc2)cc1` [Example 189, (R)-4-(3-amino-propionyl)-1-(4-trifluoromethyl-benzenesulfonyl)-piperazine-2-carboxylic acid 4-isopropyl-benzylamide hydrochloride], the IC50 in assay [1] and in assay [2] was more than 1 µM throughout.
Turning to `CC(C)c1ccc(CNC(=O)[C@H]2CN(C(=O)CCCC(=O)O)CCN2S(=O)(=O)c2ccc(C(F)(F)F)cc2)cc1` [Example 190, 5-[(R)-3-(4-isopropyl-benzylcarbamoyl)-4-(4-trifluoromethyl-benzenesulfonyl)-piperazin-1-yl]-5-oxo-pentanoic acid], the results for the IC50 in assay [1] and in assay [2] were 0.1 to 1 µM and more than 1 µM, respectively.
The corresponding values for `CC(C)c1ccc(CNC(=O)[C@H]2CN(c3nc4ccccc4s3)CCN2S(=O)(=O)c2ccc(C(F)(F)F)cc2)cc1` [Example 191, (R)-4-benzothiazol-2-yl-1-(4-trifluoromethyl-benzenesulfonyl)-piperazine-2-carboxylic acid 4-isopropyl-benzylamide] are 0.1 to 1 µM and 0.1 to 1 µM.
The matching figures for `CCOc1ccc(S(=O)(=O)N2CCN(C(C)=O)C[C@@H]2C(=O)NCc2ccc(C(C)C)cc2)cc1` [Example 192, (R)-4-acetyl-1-(4-ethoxy-benzenesulfonyl)-piperazine-2-carboxylic acid 4-isopropyl-benzylamide]: 0.1 to 1 µM and 0.1 to 1 µM.
The corresponding values for `CCCOc1ccc(S(=O)(=O)N2CCN(C(C)=O)C[C@@H]2C(=O)NCc2ccc(C(C)C)cc2)cc1` [Example 193, (R)-4-acetyl-1-(4-propoxy-benzenesulfonyl)-piperazine-2-carboxylic acid 4-isopropyl-benzylamide] are 0.1 to 1 µM and 0.1 to 1 µM.
Take `CC(=O)N1CCN(S(=O)(=O)c2ccc(CC(C)C)cc2)[C@@H](C(=O)NCc2ccc(C(C)C)cc2)C1` [Example 194, (R)-4-acetyl-1-(4-isobutyl-benzenesulfonyl)-piperazine-2-carboxylic acid 4-isopropyl-benzylamide]: the half-maximal inhibitory concentration (IC50) in assay [1] and in assay [2] was less than 0.1 µM each time.
For `CC(C)c1ccc(CNC(=O)[C@H]2CN(C(=O)Cc3c[nH]cn3)CCN2S(=O)(=O)c2ccc(C(F)(F)F)cc2)cc1` [Example 195, (R)-4-(2-1H-imidazol-4-yl-acetyl)-1-(4-trifluoromethyl-benzenesulfonyl)-piperazine-2-carboxylic acid 4-isopropyl-benzylamide], the IC50 in assay [1] and in assay [2] was 0.1 to 1 µM each time.
On to `CC(=O)N1CCN(S(=O)(=O)C2CCCCC2)C(C(=O)NCc2ccc(C(F)(F)F)cc2)C1` (stereo not drawn) [Example 196, 4-acetyl-1-cyclohexanesulfonyl-piperazine-2-carboxylic acid 4-trifluoromethyl-benzylamide], for which the IC50 in assay [1] and in assay [2] was more than 1 µM throughout.
As for `COc1ccc(CNC(=O)C2CN(C(C)=O)CCN2S(=O)(=O)c2ccc(C(C)C)cc2)c(OC)c1` (stereo not drawn) [Example 197, 4-acetyl-1-(4-isopropyl-benzenesulfonyl)-piperazine-2-carboxylic acid 2,4-dimethoxy-benzylamide], the IC50 in assay [1] and in assay [2] was more than 1 µM each time.
In the case of `COc1ccc(CNC(=O)C2CN(C(C)=O)CCN2S(=O)(=O)c2ccc(C(C)C)cc2)cc1OC` (stereo not drawn) [Example 198, 4-acetyl-1-(4-isopropyl-benzenesulfonyl)-piperazine-2-carboxylic acid 3,4-dimethoxy-benzylamide], the IC50 in assay [1] and in assay [2] was more than 1 µM in each case.
As for `CC(C)c1ccc(CNC(=O)[C@H]2CN(C(=O)NCCCC(=O)O)CCN2S(=O)(=O)c2ccc(C(F)(F)F)cc2)cc1` [Example 199, 4-{[(R)-3-(4-isopropyl-benzylcarbamoyl)-4-(4-trifluoromethyl-benzenesulfonyl)-piperazine-1-carbonyl]-amino}-butyric acid], the figures for the IC50 in assay [1] and in assay [2] were 0.1 to 1 µM and more than 1 µM, respectively.
With `CC(C)c1ccc(CNC(=O)[C@H]2CN(C(=O)Nc3ccc(N(C)C)cc3)CCN2S(=O)(=O)c2ccc(C(F)(F)F)cc2)cc1` [Example 200, (R)-4-(4-trifluoromethyl-benzenesulfonyl)-piperazine-1,3-dicarboxylic acid 1-[(4-dimethylamino-phenyl)-amide] 3-(4-isopropyl-benzylamide)], the values for the half-inhibitory concentration (IC50) in assay [1] and in assay [2] were 0.1 to 1 µM and more than 1 µM, respectively.
